This note sets out measurements from PubChem BioAssay (NCI).

Test systems include MOLT-4 leukemia; NCI-H226 lung; KM12 colon; SK-OV-3 ovarian; EKVX NSCLC; K-562 leukemia; OVCAR-5 ovarian; M14 melanoma; IGROV1 ovarian; OVCAR-4 ovarian.
What all share (experiment): NCI-60 cell line screen, 48 h

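Test compounds were applied to cells in 96-well plates for 48 hours at 5 doses. GI50 = concentration required for 50% inhibition of growth. The concentration for full growth arrest is given as TGI.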 Where only a bound is given, the exact number is not on record here.

With `CCOC(=O)NC(Nc1ccc(Cl)cn1)(C(F)(F)F)C(F)(F)F`, the TGI in the experiment with MOLT-4 leukemia, with NCI-H226 lung, in the experiment with KM12 colon, in the experiment with SK-OV-3 ovarian, with EKVX NSCLC and with K-562 leukemia was more than 100 µM throughout. Besides, the TGI in the experiment with OVCAR-5 ovarian and with M14 melanoma was more than 100 µM each time.
For the compound `O=C(O)Cn1c2c(c3c(O)cccc31)C(=O)c1ccccc1-2`, the GI50 is more than 100 µM in the experiment with MOLT-4 leukemia; more than 100 µM with IGROV1 ovarian; more than 100 µM in the experiment on NCI-H226 lung; more than 100 µM in the experiment on KM12 colon; more than 100 µM in the experiment with SK-OV-3 ovarian; 3.2 µM in the experiment on EKVX NSCLC. The GI50 in the experiment with OVCAR-4 ovarian, in the experiment on K-562 leukemia, in the experiment with OVCAR-5 ovarian and in the experiment with M14 melanoma was more than 100 µM in each case. Moreover, the TGI in the experiment on MOLT-4 leukemia, with IGROV1 ovarian, with NCI-H226 lung, in the experiment on KM12 colon, in the experiment with SK-OV-3 ovarian and with EKVX NSCLC was more than 100 µM each time. For the same compound, the TGI in the experiment with OVCAR-4 ovarian, with K-562 leukemia, in the experiment with OVCAR-5 ovarian and in the experiment on M14 melanoma was more than 100 µM in each case.
`CCCOC1OC(CS(=O)(=O)O)C(O)C(O)C1O` (configuration not stated): the TGI in the experiment on MOLT-4 leukemia, in the experiment on IGROV1 ovarian, with NCI-H226 lung, in the experiment on KM12 colon, in the experiment on SK-OV-3 ovarian and with OVCAR-4 ovarian was more than 100 µM each time. Further, the TGI in the experiment on K-562 leukemia, in the experiment with OVCAR-5 ovarian and in the experiment on M14 melanoma was more than 100 µM throughout.
Regarding `CC(=O)N/C(=C\c1ccc(/C=C(\NC(C)=O)C2=NC3C(=O)c4ccccc4C(=O)C3N2)cc1)C1=NC2C(=O)c3ccccc3C(=O)C2N1` (configuration not stated), the TGI in the experiment on MOLT-4 leukemia is 26.6 µM; with IGROV1 ovarian, more than 100 µM; with NCI-H226 lung, more than 100 µM; in the experiment on KM12 colon, more than 100 µM; in the experiment on SK-OV-3 ovarian, more than 100 µM; in the experiment with EKVX NSCLC it was more than 100 µM. Also, the TGI in the experiment on OVCAR-4 ovarian, in the experiment with K-562 leukemia, in the experiment on OVCAR-5 ovarian and in the experiment on M14 melanoma was more than 100 µM each time.
As for `C=CCc1cccc(/C=N\N=C(/N)NO)c1O`, the TGI is more than 26.8 µM with MOLT-4 leukemia; more than 74.9 µM in the experiment with IGROV1 ovarian; 11.5 µM in the experiment on NCI-H226 lung; more than 80.9 µM in the experiment with KM12 colon; 32.5 µM with SK-OV-3 ovarian; 17.7 µM in the experiment with EKVX NSCLC. Besides, the TGI in the experiment with OVCAR-4 ovarian was 38.3 µM; in the experiment on K-562 leukemia, more than 47.9 µM; in the experiment with OVCAR-5 ovarian, 64.3 µM.
In the case of `CCCCN=C1OCc2[nH][nH]c(=O)c21`, the TGI in the experiment on MOLT-4 leukemia, in the experiment on IGROV1 ovarian, in the experiment with NCI-H226 lung, with KM12 colon, with SK-OV-3 ovarian and in the experiment with EKVX NSCLC was more than 100 µM throughout. Also, the TGI with OVCAR-4 ovarian, in the experiment on K-562 leukemia, with OVCAR-5 ovarian and with M14 melanoma was more than 100 µM in each case.
For `Cc1ccc(C2CC(c3cccc(Nc4ccncc4)c3)=NN2c2ccccc2)cc1` (configuration not stated), the GI50 is 1.95 µM in the experiment on MOLT-4 leukemia; 1.75 µM in the experiment on KM12 colon; 2.34 µM with SK-OV-3 ovarian; 1.69 µM with EKVX NSCLC; 1.69 µM in the experiment on OVCAR-4 ovarian; 2.11 µM in the experiment on K-562 leukemia. Moreover, the GI50 in the experiment on OVCAR-5 ovarian was 1.68 µM. The TGI with MOLT-4 leukemia was found to be 4.64 µM; in the experiment on KM12 colon it was 3.25 µM; in the experiment with SK-OV-3 ovarian, 5.88 µM; in the experiment on EKVX NSCLC, 3.25 µM; in the experiment on OVCAR-4 ovarian, 3.12 µM; in the experiment on K-562 leukemia, 6.62 µM. This compound gave a TGI in the experiment with OVCAR-5 ovarian of 3.19 µM.
For the compound `CCCCCCCCCCCCCCCC(=O)OC1C(O)C(CO)OC(OC)C1NC(=O)N(CCCl)N=O` (configuration not stated), the TGI came out at 23 µM in the experiment on MOLT-4 leukemia; 38.3 µM in the experiment with IGROV1 ovarian; 33.7 µM with NCI-H226 lung; 35.1 µM in the experiment on KM12 colon; 34.7 µM with EKVX NSCLC; 36.3 µM with OVCAR-4 ovarian. The figures for the TGI with K-562 leukemia, with OVCAR-5 ovarian and in the experiment with M14 melanoma were 66.1 µM, 30.4 µM and 36.8 µM, respectively.
For the compound `O=[As](O)(O)c1ccc2nc3cc([As](=O)(O)O)ccc3nc2c1`, the TGI in the experiment on MOLT-4 leukemia, in the experiment on IGROV1 ovarian, with NCI-H226 lung, in the experiment on KM12 colon, in the experiment on EKVX NSCLC and with OVCAR-4 ovarian was more than 100 µM in each case. The TGI in the experiment with K-562 leukemia, in the experiment with OVCAR-5 ovarian and in the experiment with M14 melanoma was more than 100 µM throughout.
Take `C[C@]12CC[C@@H]3c4ccc(OCCN5CCCC5)cc4CC[C@H]3[C@@H]1CCC2=O`: the TGI in the experiment with MOLT-4 leukemia is 70.2 µM; in the experiment with IGROV1 ovarian, 40.7 µM; with NCI-H226 lung, 54 µM; in the experiment with SK-OV-3 ovarian, more than 100 µM; with EKVX NSCLC, 67.6 µM; in the experiment with OVCAR-4 ovarian, more than 100 µM. Moreover, the TGI with K-562 leukemia is more than 100 µM; in the experiment with OVCAR-5 ovarian, 97.4 µM; in the experiment on M14 melanoma, 29.4 µM.
